Results on 16 molecules are retold here after patent US20220324876A1, “4-SUBSTITUTED PYRANO[3,4,b]PYRAZINE KAPPA AGONISTS FOR TREATING DRUG DEPENDENCY” (The Rockefeller University, priority 2019, published 2022).

Data set [1] has as its target T1, human kappa opioid receptors (Homo sapiens, UniProt P41145).
T1 construct: expressed in transfected cells; host or cells: U2OS
The experiment in a line: [35S]GTPγS binding, membranes from U2OS cells. It is filed as biochemical. The conditions noted are these: for Emax: read-out: GTPγS (% efficacy). (In general: GTPγS resists hydrolysis and so accumulates on activated G proteins.)

Data set [2] deals with kappa opioid receptor (hOPRK1) β-arrestin (Homo sapiens, UniProt P41145). The experiment in a line: β-arrestin PathHunter assay (U2OS hOPRK1). The conditions noted are these: for Arrestin efficacy, %: Table E.
In data set [3] the test system is male mice. The experiment in a line: Serum prolactin release in mice. The class given is in vivo. The conditions noted are these: dose-response experiment.
The test system of data set [4] is male mice. The data set is described as follows: Rotarod incoordination (sedation) in mice. The class given is in vivo. From the text: In the case of rotarod incoordination, kappa agonist effects in this assay reflect kappa-opioid receptor arrestin mediated signaling. This assay is thought to be a sensitive measure of the sedative properties of kappa opioid receptor agonists. Generally, a compound which has reduced efficacy in the coupling of arrestin with the kappa opioid receptor is thought to have a lowered potential for the sedative side effects of kappa opioid receptor ligands Rotarod assays in vivo are employed to confirm this possibility.
Rotarod experiments are conducted with mice using a dedicated rodent rotarod apparatus, with up to five animals tested concurrently (IITC Life Science, Woodland Hills, Calif, USA). Rotarod rotation rate begins at 3 rotations per minute, and ramps to 30 rotations per minute over the course of 300 s, at which time the assay is terminated and animals removed to their home cage. Animals are acclimated to the rotarod on at least two occasions prior to the day of the test. On the day of the test, baseline times for each animal to fall off the rotarod are recorded. Mice are then injected intraperitoneally with vehicle or compound, and rotarod measurements conducted, beginning 0-2 minutes after injection, and then subsequently at select time points thereafter. Animals which fail to remain on the rotarod for at least 150 seconds during baseline testing are removed from the analysis.
(The closure of laboratories during the covid-19 pandemic delayed the carrying out of conditioned place aversion assays and modulation of cocaine self-administration, so that results were not available by the filing date of this application.)
(Falling from the rotarod earlier than controls is read as motor impairment.)

The term EC50 denotes the concentration that produces a half-maximal response. A low value points to greater potency.

T1 sequence (P41145 whole entry): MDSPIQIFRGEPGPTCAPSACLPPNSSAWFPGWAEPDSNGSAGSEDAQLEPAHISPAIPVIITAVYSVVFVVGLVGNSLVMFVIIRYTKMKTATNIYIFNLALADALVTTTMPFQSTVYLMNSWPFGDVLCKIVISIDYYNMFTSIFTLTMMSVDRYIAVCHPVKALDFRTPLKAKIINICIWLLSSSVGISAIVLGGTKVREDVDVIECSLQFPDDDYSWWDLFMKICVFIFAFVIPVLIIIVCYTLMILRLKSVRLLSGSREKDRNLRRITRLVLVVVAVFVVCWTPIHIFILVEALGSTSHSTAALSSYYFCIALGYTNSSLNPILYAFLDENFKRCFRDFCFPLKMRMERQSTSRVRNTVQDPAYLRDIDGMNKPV
Sequence of kappa opioid receptor (hOPRK1) β-arrestin (P41145 whole entry): as above

As to `CC(C)(O)CN1CCN(C(=O)Cc2ccc(Cl)c(Cl)c2)[C@H]2[C@H]1COC[C@@H]2N1CCCC1` (single isomer, unassigned) [Example 5A90A], the EC50 in data set [1] (GTPγS EC50 (nM), Table D) came out at 22 nM; in data set [1] (GTPγS potency (nM), Table E) it was 34.7 nM; in data set [2], 43200 nM. In addition, the “GTPγS efficacy, %” value in data set [1] (Table E) amounted to 91.0%. In data set [1], the Emax worked out at 101%. Also, in data set [2], the “Arrestin efficacy, %” value worked out at 78.1%.

As to `CC(C)(O)CN1CCN(C(=O)Cc2ccc(Cl)c(Cl)c2)[C@H]2[C@H](N3CCCC3)COC[C@@H]21` (single isomer, unassigned) [Example 5A90B], the EC50 in data set [1] (GTPγS EC50 (nM), Table D) came to 5.4 nM; in data set [1] (GTPγS potency (nM), Table E), 8.9 nM; in data set [2], 5250 nM. Moreover, the “GTPγS efficacy, %” value in data set [1] (Table E) stood at 69.3%. In addition, in data set [1], the Emax was found to be 68%. Besides, the “stimulation of prolactin levels” value in the data set with male mice [3] (30 mg/kg (p<0.05)) and in the data set on male mice [3] (90 mg/kg (p<0.005)) was “statistically significant stimulation” throughout. Also, the “sedative effect in rotarod” value with male mice [4] (10 mg/kg intraperitoneally) is “not”; in the data set on male mice [4] (30 mg/kg intraperitoneally), “not”; in the data set on male mice [4] (90 mg/kg intraperitoneally), “substantial sedative effect”. Further, in data set [2], the “Arrestin efficacy, %” value stood at 46.5%.

For `COCCN1CCN(C(=O)Cc2ccc(Cl)c(Cl)c2)[C@H]2[C@H](N3CCCC3)COC[C@@H]21` (single isomer, unassigned) [Example 5A141B], the concentration for a half-maximal effect (EC50) in data set [1] (GTPγS EC50 (nM), Table D) was 26 nM. In addition, in data set [1], the Emax was found to be 103%.

Turning to `O=C(Cc1ccc(Cl)c(Cl)c1)N1CCN(CCC2COC2)[C@@H]2COC[C@H](N3CCCC3)[C@H]21` (single isomer, unassigned) [Example 5A142A], in data set [1] (GTPγS EC50 (nM), Table D), the 50% effective concentration (EC50) amounted to 70 nM. Besides, in data set [1], the Emax was found to be 77%.

In the case of `O=C(Cc1ccc(Cl)c(Cl)c1)N1CCN(Cc2cccc(F)c2)[C@@H]2COC[C@H](N3CCCC3)[C@H]21` (single isomer, unassigned) [Example 5A145A], the 50% effective concentration (EC50) in data set [1] (GTPγS EC50 (nM), Table D) is 5 nM. Moreover, the Emax in data set [1] worked out at 95%.

For the molecule `O=C(Cc1ccc(Cl)c(Cl)c1)N1CCN(Cc2cccc(F)c2)[C@H]2COC[C@@H](N3CCCC3)[C@@H]21` (single isomer, unassigned) [Example 5A145B], the 50% effective concentration (EC50) in data set [1] (GTPγS EC50 (nM), Table D) turned out to be 9.7 nM. Moreover, in data set [1], the Emax was 91%.

As to `COCCS(=O)(=O)N1CCN(C(=O)Cc2ccc(Cl)c(Cl)c2)[C@H]2[C@H]1COC[C@@H]2N1CCCC1` (single isomer, unassigned) [Example 5A146A], in data set [1] (GTPγS EC50 (nM), Table D), the 50% effective concentration (EC50) came out at 9.2 nM. For the same molecule, in data set [1], the Emax came out at 91%.

The molecule `COCCS(=O)(=O)N1CCN(C(=O)Cc2ccc(Cl)c(Cl)c2)[C@H]2[C@H](N3CCCC3)COC[C@@H]21` (single isomer, unassigned) [Example 5A146B] gave a 50% effective concentration (EC50) in data set [1] (GTPγS EC50 (nM), Table D) of 115 nM. For the same molecule, the Emax in data set [1] came out at 127%.

The molecule `O=C(Cc1ccc(Cl)c(Cl)c1)N1CCN(Cc2ccon2)[C@@H]2COC[C@H](N3CCCC3)[C@H]21` [Example 5A86A] registered an EC50 in data set [1] (GTPγS EC50 (nM), Table D) of 1 nM. For the same molecule, the Emax in data set [1] was determined as 99%.

On to `O=C(Cc1ccc(Cl)c(Cl)c1)N1CCN(Cc2ccon2)[C@H]2COC[C@@H](N3CCCC3)[C@@H]21` [Example 5A86B], for which, in data set [1] (GTPγS EC50 (nM), Table D), the midpoint of the response, the EC50, lay at 23 nM. Further, in data set [1], the Emax was 79%.

Turning to `CC(O)CN1CCN(C(=O)Cc2ccc(Cl)c(Cl)c2)[C@H]2[C@H]1COC[C@@H]2N1CCCC1` (stereo partly drawn) [Example 5A89], the EC50 in data set [1] (GTPγS EC50 (nM), Table D) amounted to 34 nM. The Emax in data set [1] came to 93%.

On to `O=C(Cc1ccc(Cl)c(Cl)c1)N1CCN(CC2CCOC2)[C@@H]2COC[C@H](N3CCCC3)[C@H]21` (stereo partly drawn) [Example 5A93], for which the 50% effective concentration (EC50) in data set [1] (GTPγS EC50 (nM), Table D) came to 46 nM. In data set [1], the Emax worked out at 80%.

As for `CC(C)(O)C(=O)N1CCN(C(=O)Cc2ccc(Cl)c(Cl)c2)[C@H]2[C@H]1COC[C@@H]2N1CCCC1` [Example 5A96A], the EC50 in data set [1] (GTPγS EC50 (nM), Table D) was found to be 17 nM; in data set [1] (GTPγS potency (nM), Table E), 32.8 nM; in data set [2] it was 3760 nM. Also, the “GTPγS efficacy, %” value in data set [1] (Table E) stood at 77.0%. Also, the Emax in data set [1] is 64%. In addition, the “sedative effect in rotarod” value with male mice [4] (up to 90 mg/kg intraperitoneally) is recorded as “no statistically significant sedative effect”. The “Arrestin efficacy, %” value in data set [2] worked out at 53.0%.

With `CC(C)(O)C(=O)N1CCN(C(=O)Cc2ccc(Cl)c(Cl)c2)[C@H]2[C@H](N3CCCC3)COC[C@@H]21` [Example 5A96B], the 50% effective concentration (EC50) in data set [1] (GTPγS EC50 (nM), Table D) was 64 nM; in data set [1] (GTPγS potency (nM), Table E), 71.4 nM; in data set [2] it was 24800 nM. Besides, the “GTPγS efficacy, %” value in data set [1] (Table E) came to 123.5%. Also, in data set [1], the Emax came to 113%. Besides, in data set [2], the “Arrestin efficacy, %” value was 60.7%.

`CC(F)(F)CN1CCN(C(=O)Cc2ccc(Cl)c(Cl)c2)[C@H]2[C@H]1COC[C@@H]2N1CCCC1` [Example 5A127A] had an EC50 in data set [1] (GTPγS EC50 (nM), Table D) of 5.3 nM. The Emax in data set [1] is 110%.

Regarding `CC(F)(F)CN1CCN(C(=O)Cc2ccc(Cl)c(Cl)c2)[C@H]2[C@H](N3CCCC3)COC[C@@H]21` [Example 5A127B], in data set [1] (GTPγS EC50 (nM), Table D), the 50% effective concentration (EC50) came out at 24 nM. Moreover, in data set [1], the Emax amounted to 88%.
